In article PMC12775434, “Ultra-large virtual screening unveils potent agonists of the neuromodulatory orphan receptor GPR139” (Nature Communications, 2025):
Where “and” joins values, the source holds several entries; their conditions need not be identical. Identical values can stand only once.

Tests used:
[1] = target: T1, GPR139 (Homo sapiens, UniProt Q6DWJ6); experiment: Ca2+ mobilization assay, agonist mode, stable GPR139-CHOk1 cell line; assay type: cell-based
T1 sequence (Q6DWJ6 1-353): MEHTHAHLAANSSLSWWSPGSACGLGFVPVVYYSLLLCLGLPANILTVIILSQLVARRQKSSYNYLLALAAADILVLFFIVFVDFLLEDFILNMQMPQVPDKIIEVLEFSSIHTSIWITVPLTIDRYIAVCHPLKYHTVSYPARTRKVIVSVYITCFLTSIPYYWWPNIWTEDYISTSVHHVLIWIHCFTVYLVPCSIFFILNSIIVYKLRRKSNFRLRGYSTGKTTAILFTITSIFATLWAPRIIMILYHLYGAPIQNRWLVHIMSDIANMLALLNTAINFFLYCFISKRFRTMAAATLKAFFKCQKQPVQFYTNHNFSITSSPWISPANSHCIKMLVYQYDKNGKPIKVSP
Outline: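 Agonist activity of compounds is assessed in stably transfected CHO-K1 cells using the calcium dye Fluo-4 at 37 °C in HEPES-buffered HBSS (pH 7.4). Efficacy is expressed relative to the reference agonist Lundbeck Cmp 1a, set as 100%.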

[2] = test system: patients with schizophrenia and major depressive disorder; conditions: cited from earlier work
[3] = target: T1, GPR139; experiment: Inositol monophosphate (IP1) accumulation assay, GPR139-CHOk1; assay type: cell-based; conditions: for IP1 response (% of Cmp 1a): replicate experiments
Experimental: Primary screening and pharmacological characterization of compounds were performed using a CHO-K1 cell line that stably expresses human GPR139 (GPR139-CHOk1). The GPR139-CHOk1 cell line was kindly provided by H. Lundbeck A/S, Denmark[24]. GPR139-CHOk1 cells were grown in Ham’s F-12 Kaighn’s Modification Medium (ThermoFisher #21127030) supplemented with 10% dialyzed fetal bovine serum (US origin, ThermoFisher #26400044), 100 units/mL Penicillin-Streptomycin (ThermoFisher #15140122), and 1 mg/mL Geneticin (ThermoFisher #11811031). […] M1R-CHOk1 cells were purchased from The Missouri S&T cDNA Resource Center (#CEM100TN00). M1R-CHOk1 cells were grown in Ham’s F12 Medium (ThermoFisher #21765029) supplemented with 10% fetal bovine serum (Brazilian origin, ThermoFisher #10270106), 100 units/mL Penicillin-Streptomycin, and 0.25 mg/mL Geneticin. HEK293A cells transiently transfected with GPR139 were used for additional pharmacological assessment of signaling pathways activated by GPR139. HEK239A cells were generously provided by Dr. Asuka Inoue, Tohoku University, Japan. HEK293A cells were grown in Dulbecco’s Modified Eagle Medium (ThermoFisher #31966047) supplemented with 10% dialyzed fetal bovine serum and 100 units/mL Penicillin-Streptomycin. Cell lines were maintained at 37 °C in humidified incubator equilibrated with 5% CO2.
HTRF IP-One Gq kit (Cisbio #62IPAPEC) was used to detect the accumulation of inositol monophosphate (IP1) as described in the work by Shehata et al.[26]. GPR139-CHOk1 cells were dissociated and resuspended in HEPES buffer. 50,000 cells in 5 µL and 5 µL test compounds diluted from DMSO stocks (final DMSO concentration of maximally 0.3%) in HEPES buffer supplemented with 40 mM LiCl were mixed in each well of white 384-well OptiPlate (PerkinElmer #6007290). The cells were incubated for 1 h at 37 °C. Then, 10 µL detection reagent composed of 2.5% Eu3 + -anti-IP1 antibody and 2.5% IP1-d2 diluted in lysis buffer was added, and the cells were incubated for 1 h at room temperature before measurements. Measurements were performed on EnVision Multimode Plate Reader (PerkinElmer) using excitation light of 340 nm and emission light of 615 nm and 665 nm. The time resolved-fluorescence resonance energy transfer (TR-FRET) 665 nm/615 nm ratio, which is inversely proportional to the IP1 accumulation, was used to determine the IP1 response.
Pharmacological data and statistical analyses were performed in GraphPad Prism v9–10 (Graphpad Software Inc., San Diego, CA), which are also specifically described in the figure and table legends. The functional assay responses were normalized to buffer (0%) and Lundbeck Cmp 1a or JNJ-63533054 (100%), for Ca^2+ and IP1 experiments in the GPR139-CHOk1 stable cell line or Ca^2+, G protein activation, and arrestin-3 recruitment experiments in the HEK293A cells transiently transfected with GPR139, respectively. Data are from at least three independent experiments, unless stated otherwise. Concentration-response curves were fitted applying non-linear regression using the log (agonist) versus response model with variable slope. ANOVA was applied for comparing results and determining statistical significance. Comparison of responses to the reference was performed using one-way ANOVA with Dunnett’s multiple comparisons test at significance threshold of p < 0.05. Comparison of responses across assays and ligands was performed using two-way ANOVA with Tukey’s multiple comparisons test at a significance threshold of p < 0.05.

C[C@H](NC(=O)Cn1nnc2ccccc2c1=O)c1ccc(OC(F)(F)F)cc1 [TAK-041, reference compound]
Ca2+ signal (% of Cmp 1a) ([1]; log [Compound] M -5.5, replicate experiments): 99 % of Cmp 1a and 95 % of Cmp 1a and 92 % of Cmp 1a
Ca2+ signal (% of Cmp 1a) ([1]; log [Compound] M -6.0, replicate experiments): 80 % of Cmp 1a and 94 % of Cmp 1a and 83 % of Cmp 1a
Ca2+ signal (% of Cmp 1a) ([1]; log [Compound] M -6.5, replicate experiments): 83 % of Cmp 1a and 80 % of Cmp 1a (2×)
Ca2+ signal (% of Cmp 1a) ([1]; log [Compound] M -7.0, replicate experiments): 63 % of Cmp 1a and 62 % of Cmp 1a (2×)
Ca2+ signal (% of Cmp 1a) ([1]; log [Compound] M -7.5, replicate experiments): 35 % of Cmp 1a and 36 % of Cmp 1a and 41 % of Cmp 1a
Ca2+ signal (% of Cmp 1a) ([1]; log [Compound] M -8.0, replicate experiments): 16 % of Cmp 1a and 11 % of Cmp 1a and 17 % of Cmp 1a
Ca2+ signal (% of Cmp 1a) ([1]; log [Compound] M -8.5, replicate experiments): 0 % of Cmp 1a
Ca2+ signal (% of Cmp 1a) ([1]; log [Compound] M -9.0, replicate experiments): 0 % of Cmp 1a
Ca2+ signal (% of Cmp 1a) ([1]; log [Compound] M = -5.5, individual replicate columns): 99 % of Cmp 1a and 95 % of Cmp 1a and 92 % of Cmp 1a
Ca2+ signal (% of Cmp 1a) ([1]; log [Compound] M = -6.0, individual replicate columns): 80 % of Cmp 1a and 94 % of Cmp 1a and 83 % of Cmp 1a
Ca2+ signal (% of Cmp 1a) ([1]; log [Compound] M = -6.5, individual replicate columns): 83 % of Cmp 1a and 80 % of Cmp 1a (2×)
Ca2+ signal (% of Cmp 1a) ([1]; log [Compound] M = -7.0, individual replicate columns): 63 % of Cmp 1a and 62 % of Cmp 1a (2×)
Ca2+ signal (% of Cmp 1a) ([1]; log [Compound] M = -7.5, individual replicate columns): 35 % of Cmp 1a and 36 % of Cmp 1a and 41 % of Cmp 1a
Ca2+ signal (% of Cmp 1a) ([1]; log [Compound] M = -8.0, individual replicate columns): 16 % of Cmp 1a and 11 % of Cmp 1a and 17 % of Cmp 1a
Ca2+ signal (% of Cmp 1a) ([1]; log [Compound] M = -8.5, individual replicate columns): 0 % of Cmp 1a
Ca2+ signal (% of Cmp 1a) ([1]; log [Compound] M = -9.0, individual replicate columns): 0 % of Cmp 1a
Emax ([1]; read-out: Emax (%), Ca2+ mobilization): 100 ± 3%
outcome of phase II trials ([2]; anhedonia in schizophrenia and major depressive disorder): did not meet the primary endpoints
safety and tolerability [2]: good safety profile and was well tolerated
Emax ([3]; Supplementary Table 4, normalized to Lundbeck Cmp 1a, read-out: Emax (%), IP1 accumulation): 101 ± 9%
IP1 response (% of Cmp 1a) ([3]; log [Compound] M -4.5): 112 % of Cmp 1a and 93 % of Cmp 1a and 83 % of Cmp 1a and 114 % of Cmp 1a
IP1 response (% of Cmp 1a) ([3]; log [Compound] M -5.0): 115 % of Cmp 1a and 78 % of Cmp 1a and 92 % of Cmp 1a and 118 % of Cmp 1a
IP1 response (% of Cmp 1a) ([3]; log [Compound] M -5.5): 87 % of Cmp 1a and 81 % of Cmp 1a and 75 % of Cmp 1a and 93 % of Cmp 1a
IP1 response (% of Cmp 1a) ([3]; log [Compound] M -6.0): 84 % of Cmp 1a and 66 % of Cmp 1a and 75 % of Cmp 1a and 94 % of Cmp 1a
IP1 response (% of Cmp 1a) ([3]; log [Compound] M -6.5): 86 % of Cmp 1a and 56 % of Cmp 1a and 45 % of Cmp 1a and 98 % of Cmp 1a
IP1 response (% of Cmp 1a) ([3]; log [Compound] M -7.0): 63 % of Cmp 1a (2×) and 41 % of Cmp 1a and 62 % of Cmp 1a
IP1 response (% of Cmp 1a) ([3]; log [Compound] M -7.5): 51 % of Cmp 1a and 26 % of Cmp 1a and 33 % of Cmp 1a and 49 % of Cmp 1a
IP1 response (% of Cmp 1a) ([3]; log [Compound] M -8.0): 28 % of Cmp 1a and -3.49 % of Cmp 1a and 8 % of Cmp 1a and 21 % of Cmp 1a
